Data published in patent US20130225530A1 (priority 2010, published 2013).
Like-named read-outs stand apart in the source and are kept apart here.

Key:
[1] = tested on: normal proliferating T cells (d6 T cells)
Procedure: Apoptotic cell death was determined by DNA fragmentation after 48 hours.
Since proliferating cells are in general more susceptible to drug-induced apoptotic cell death, the T cells were activated through PHA stimulation and cultured for further 5 days under supplementation of IL-2 (so called d6 T cells).

[2] = tested on: ventricular cardiac myocytes; test: Tolerance of the compound by ventricular cardiac myocytes; assay type: cell-based, rat; conditions: even at higher doses
Text: To test Wogonin in hypertrophic conditions, ventricular cardiac myocytes from neonatal rats were isolated.

CDK6 = CDK6 (Homo sapiens, UniProt Q00534); test: Inhibition of the kinase CDK6; assay type: biochemical
Chain of CDK6 (Q00534 whole entry, species assumed): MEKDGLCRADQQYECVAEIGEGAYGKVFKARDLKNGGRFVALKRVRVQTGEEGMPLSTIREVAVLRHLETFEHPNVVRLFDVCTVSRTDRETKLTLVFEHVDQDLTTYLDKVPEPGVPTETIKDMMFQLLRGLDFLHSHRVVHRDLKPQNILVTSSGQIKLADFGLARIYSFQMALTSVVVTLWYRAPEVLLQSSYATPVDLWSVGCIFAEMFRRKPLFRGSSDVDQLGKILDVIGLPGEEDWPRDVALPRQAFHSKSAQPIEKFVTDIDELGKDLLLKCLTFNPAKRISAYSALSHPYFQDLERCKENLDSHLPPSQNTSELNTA
Procedure: (§1) Contrary to this, the known compound Quercetin does inhibit the kinases CDK4 and CDK6 (applied at a dose of 50 µM).

CDK4 = CDK4 (Homo sapiens, UniProt P11802); test: Inhibition of the kinase CDK4; assay type: biochemical
Chain of CDK4 (P11802 whole entry, species assumed): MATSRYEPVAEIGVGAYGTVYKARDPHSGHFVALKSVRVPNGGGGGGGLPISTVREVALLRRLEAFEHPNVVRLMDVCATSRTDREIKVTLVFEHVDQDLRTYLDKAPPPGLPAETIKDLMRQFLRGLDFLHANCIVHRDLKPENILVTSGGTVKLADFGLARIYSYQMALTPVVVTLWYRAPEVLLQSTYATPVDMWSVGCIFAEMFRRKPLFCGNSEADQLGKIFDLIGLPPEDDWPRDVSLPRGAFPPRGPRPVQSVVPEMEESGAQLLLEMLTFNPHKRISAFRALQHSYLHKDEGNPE
Procedure: as §1

CDK9 = target: T1, CDK9 (Homo sapiens, UniProt P50750); test: Duration of the inhibitory effect on CDK9 in CEM; assay type: cell-based; conditions: dose of 50 μM in CEM
T1 construct: endogenous in cells; host or cells: CEM
T1 sequence (P50750 whole entry): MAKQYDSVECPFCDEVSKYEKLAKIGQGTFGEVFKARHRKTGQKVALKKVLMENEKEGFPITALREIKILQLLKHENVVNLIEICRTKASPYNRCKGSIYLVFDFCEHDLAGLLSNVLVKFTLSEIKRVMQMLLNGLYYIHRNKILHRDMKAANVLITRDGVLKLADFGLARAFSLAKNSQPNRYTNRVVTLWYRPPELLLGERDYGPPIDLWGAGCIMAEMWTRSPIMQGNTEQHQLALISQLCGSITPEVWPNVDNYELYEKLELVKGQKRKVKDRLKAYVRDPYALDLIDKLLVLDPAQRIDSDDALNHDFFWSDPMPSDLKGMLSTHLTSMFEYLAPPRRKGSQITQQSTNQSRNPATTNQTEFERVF
T1 sequence (O60563 whole entry partner): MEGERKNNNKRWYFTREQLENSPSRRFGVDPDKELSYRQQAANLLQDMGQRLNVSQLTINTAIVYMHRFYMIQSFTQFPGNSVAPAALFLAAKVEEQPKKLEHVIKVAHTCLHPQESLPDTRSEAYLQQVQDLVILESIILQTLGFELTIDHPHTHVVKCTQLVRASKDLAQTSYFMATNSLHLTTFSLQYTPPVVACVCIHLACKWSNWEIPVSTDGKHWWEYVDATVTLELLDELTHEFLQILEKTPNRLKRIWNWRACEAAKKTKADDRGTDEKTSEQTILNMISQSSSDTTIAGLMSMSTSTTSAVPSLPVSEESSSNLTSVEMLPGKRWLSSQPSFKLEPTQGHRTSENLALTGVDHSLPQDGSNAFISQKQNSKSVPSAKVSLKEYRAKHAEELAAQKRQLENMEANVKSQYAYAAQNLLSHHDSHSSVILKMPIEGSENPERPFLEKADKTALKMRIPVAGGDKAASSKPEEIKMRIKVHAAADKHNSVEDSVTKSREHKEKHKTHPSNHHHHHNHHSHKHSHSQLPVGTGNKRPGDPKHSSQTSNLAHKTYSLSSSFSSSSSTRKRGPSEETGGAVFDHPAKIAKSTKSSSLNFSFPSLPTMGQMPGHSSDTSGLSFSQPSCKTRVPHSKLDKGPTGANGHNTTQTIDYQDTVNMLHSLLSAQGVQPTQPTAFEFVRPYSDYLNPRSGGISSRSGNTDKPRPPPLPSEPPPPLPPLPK

CDK2 = CDK2 (Homo sapiens, UniProt P24941); test: Inhibition of the cellular kinase CDK2; assay type: biochemical
Procedure: The amount of phosphorylated substrate was determined by Western Blot using phospho-specific antibodies.

[3] = tested on: RNAPII C-terminal domain Ser2 phosphorylation; test: Phenylephrine-induced phosphorylation of RNAPII in ventricular cardiac myocytes; assay type: cell-based, rat
Text: To test Wogonin in hypertrophic conditions, ventricular cardiac myocytes from neonatal rats were isolated. Hypertrophy was induced by stimulating the cells (cardiomyocytes) with phenylephrine.

leukemic CEM cells = test: Killing of leukemic CEM T-cells (DNA fragmentation); assay type: cell-based

SMILES	DNA-fragmentation ([1]; T-cells, 48 hours, dose of 10 μM)	DNA-fragmentation compared with Quercetin (in words) ([1]; T-cells, 48 hours, doses of 10 μM, 50 μM and 100 μM)	toxicity to normal T cells compared to other flavones tested (in words) ([1]; d6 T cells)	toxicity to normal proliferating T cells (in words) ([1]; up to concentrations of 100 μM, in comparison to leukemic CEM cells)	tolerance by the cells (in words) [2]	inhibition of CDK6 (in words) (CDK6; applied at a dose of 50 μM)	inhibition of CDK6 (in words) (CDK6; no concentration given)	inhibition of CDK4 (in words) (CDK4; applied at a dose of 50 μM)	inhibition of CDK4 (in words) (CDK4; no concentration given)	duration of inhibitory effect on CDK9 compared with Quercetin (in words) (CDK9)	inhibition of CDK2 (in words) (CDK2)	inhibition of phenylephrine-induced phosphorylation of RNAPII (in words) ([3]; neonatal rat cardiomyocytes, 50 μM in a solution)	DNA-fragmentation ([1]; human, 48 h, 10 μM)	concentration required to kill leukemic cells (leukemic CEM cells)	inhibition of phosphorylation of the RNAPII C-terminal domain at Ser2 (in words) ([3]; no concentration or cell type given)
COc1c(O)cc(O)c2c(=O)cc(-c3ccccc3)oc12 [Wogonin, 5,7-Dihydroxy-8-methoxy-flavone]	less than 5%	much less DNA-fragmentation	particularly low toxicity	no or very low toxicity	well supported by the cells	do not inhibit	does not strongly inhibit	do not inhibit	does not strongly inhibit	much longer inhibitory effect	does not strongly inhibit	almost completely inhibited			
O=c1c(O)c(-c2ccc(O)c(O)c2)oc2cc(O)cc(O)c12 [Quercetin, reference compound]						does inhibit		does inhibit					more than 15%		
CN1CC[C@H](c2c(O)cc(O)c3c(=O)cc(-c4ccccc4Cl)oc23)[C@H](O)C1 [Flavopiridol, reference compound]														~500 nM	inhibits phosphorylation
